Experimental data: patent publication US6103875A, “Antifungal compounds from pseudomonas viridiflava” (Pharmagenesis, Inc., priority 1997, dated 2000)
Values after ≈ are worked out from the molar mass of the structure shown.

What was measured:
Candida albicans 90028 = assay: Minimal inhibitory concentration test (modified NCCLS protocol); type: cell-based, Candida albicans (ATCC 90028)
Protocol: (§1) All fungi used for test purposes for sensitivity to the ecomycins were obtained from the ATCC or from the mycological collection at Montana State University, Bozeman, Mont.
(§2) Samples of the semi-purified ecomycin preparation, purified Ecomycin A, and Ecomycin B were tested, along with a known antifungal compound, Amphotericin B, in a minimal inhibitory concentration test (MIC) modification of the NCCLS protocol (Galgiani, et al., 1995).

Candida kefir 46764 = assay: as above; type: cell-based, Candida kefir (ATCC 46764)
Protocol: as §1, §2

[1] = system: Cryptococcus neoformans 90013; assay: as above; type: cell-based, Cryptococcus neoformans (ATCC 90013)
Protocol: as §1, §2

Candida glabrata 90030 = assay: as above; type: cell-based, Candida glabrata (ATCC 90030); settings: Nakaseomyces glabratus
Protocol: as §1, §2

[2] = cited from earlier work
Candida albicans = assay: Synergy with amphotericin B, inhibition of growth in 96-well plates; type: cell-based
Protocol: Briefly, in turning now to the illustrative experiments described in Example 11, varying amounts of amphotericin B were added to varying concentrations of an exemplary composition containing the antifungal lipopeptides of the present invention, extract EB-273, followed by a determination of the resulting inhibition of growth of Candida albicans.
Experiments were conducted with the semi-purified preparation of ecomycins (extract EB-273), added individually or in combination with sub-fungicidaldoses of Amphotericin B, to 96-well plates inoculated with C. albicans.

[3] = system: Cryptococcus neoformans 90012; assay: Minimal inhibitory concentration test (modified NCCLS protocol); type: cell-based, Cryptococcus neoformans (ATCC 90012)
Protocol: as §1, §2

Candida albicans 90029 = assay: as above; type: cell-based, Candida albicans (ATCC 90029)
Protocol: as §1, §2

[4] = Thomas, 1986; cited from earlier work
[5] = system: Candida parasilopsis 90018; assay: Minimal inhibitory concentration test (modified NCCLS protocol); type: cell-based, Candida parasilopsis (ATCC 90018)
Protocol: as §1, §2

## C[C@@H]1[C@H](O)[C@@H](C)/C=C/C=C/C=C/C=C/C=C/C=C/C=C/[C@H](O[C@@H]2O[C@H](C)[C@@H](O)[C@H](N)[C@@H]2O)C[C@@H]2O[C@](O)(C[C@@H](O)C[C@@H](O)[C@H](O)CC[C@@H](O)C[C@@H](O)CC(=O)O[C@H]1C)C[C@H](O)[C@H]2C(=O)O [Amphotericin B]
Candida albicans 90028
  MIC: 0.6 µg/mL (≈ 0.649 µM)
Candida kefir 46764
  MIC: 0.1 µg/mL (≈ 0.108 µM)
[1]
  MIC: 0.3 µg/mL (≈ 0.325 µM)
Candida glabrata 90030
  MIC: 0.6 µg/mL (≈ 0.649 µM)
[2]
  oral absorption: not adsorbed orally
Candida albicans; Candida albicans, read-out: inhibitory effect
  inhibition at 0.035 µg/mL: ~30%
Candida albicans; Candida albicans, amphotericin B alone, 70 ng/ml, read-out: inhibitory effect
  inhibition at 0.07 µg/mL: ~25%
Candida albicans; Candida albicans, amphotericin B alone, 105 ng/ml, read-out: inhibitory effect
  inhibition at 0.105 µg/mL: ~43%
Candida albicans; Candida albicans, amphotericin B alone, 140 ng/ml, read-out: inhibitory effect
  inhibition at 0.14 µg/mL: ~55%
Candida albicans; Candida albicans, amphotericin B alone, 175 ng/ml, read-out: inhibitory effect
  inhibition at 0.175 µg/mL: ~84%
Candida albicans; amphotericin B 70 ng/ml + extract EB-273 about 8-12 μg/ml or greater vs. amphotericin B alone
  enhancement of inhibitory effect: nearly four-fold
Candida albicans; amphotericin B 70 ng/ml + extract EB-273 at about 8-12 μg/ml or greater
  inhibitory effect: ~100%
Candida albicans; amphotericin B 105 ng/ml + extract EB-273 vs. amphotericin B alone
  enhancement of activity: approximate two-fold enhancement
Candida albicans; amphotericin B 140 ng/ml + extract EB-273 vs. amphotericin B alone
  enhancement of activity: approximate two-fold enhancement
Candida albicans; amphotericin B + ecomycin extract EB-273, range of dosage responses
  interaction between amphotericin B and ecomycin extract (isobolographic analyses): synergistic rather than additive
Candida albicans; amphotericin B alone, 210 ng/ml
  inhibition of C. albicans: nearly complete inhibition
Candida albicans; in combination with the lipopeptides composition
  reduction of amount of amphotericin B required to effectively suppress growth of Candida: at least 30%
Candida albicans; with EB-273, [210 ng/ml-175 ng/ml]/210×100
  reduction of amphotericin B concentration required for substantially complete inhibition: 16%
Candida albicans; with a suitable concentration of EB-273, fourth of four
  reduction of amphotericin B concentration required for substantially complete inhibition: 66%
Candida albicans; with a suitable concentration of EB-273, second of four
  reduction of amphotericin B concentration required for substantially complete inhibition: 33%
Candida albicans; with a suitable concentration of EB-273, third of four
  reduction of amphotericin B concentration required for substantially complete inhibition: 50%
[3]
  MIC: 0.1 µg/mL (≈ 0.108 µM)
Candida albicans 90029
  MIC: 0.6 µg/mL (≈ 0.649 µM)
[4]
  toxicity, undesirable side-effects: leucopenia, thrombocytopenia, renal tubular acidosis, hypokalemia, hypomagnesemia, headaches, nausea, and anemia
[5]
  MIC: 0.1 µg/mL (≈ 0.108 µM)
